For `CS(=O)(=O)CC#N`, which logP is on record?
The logP was -1.42.

With `NCc1ccccn1` as the compound, how does the logP read?
Its logP is -0.21.

Which logP does the source give for `c1ccc2[se]ccc2c1` here?
The logP was 3.19.

With `COC(=O)Nc1nc2ccccc2[nH]1` as the compound, how does the logP read?
The logP was 1.52.

With `Cc1ccc(O)c(C)c1` as the compound, how does the logP read?
The logP was 2.3.

For `O=c1[nH]c(=O)n([C@H]2C[C@H](O)[C@@H](CO)O2)cc1F`, which logP is on record?
The logP was -1.16.

For `CCN(CC)S(=O)(=O)c1ccc(OC)c(N)c1`, which logP is on record?
The logP was 1.7.

With `CNCCNC` as the compound, how does the logP read?
The logP was -0.62.

For `Ic1ccc(I)cc1`, which logP is on record?
Its logP is 4.11.

Which logP does the source give for `CC(C#N)c1ncc([N+](=O)[O-])[nH]1` (stereo not drawn) here?
Its logP is -0.07.

For `CN(C)C(=O)N(c1ccccc1)c1ccccc1`, which logP is on record?
The logP was 2.8.

For `NC(=O)c1cnccn1`, which logP is on record?
Its logP is -0.6.

Which logP does the source give for `C1=COCCC1` here?
Its logP is 0.69.

With `O=S(=O)(Oc1ccccc1)c1ccccc1` as the compound, how does the logP read?
Its logP is 3.06.

With `CC[N+](=O)[O-]` as the compound, how does the logP read?
Its logP is 0.18.

With `COC(=O)CNC(=O)c1ccc([N+](=O)[O-])cc1` as the compound, how does the logP read?
The logP was 0.98.

Which logP does the source give for `O=C(O)Cc1cccc(O)c1` here?
Its logP is 0.85.

With `CC(=O)c1ccc(N)cc1` as the compound, how does the logP read?
Its logP is 0.83.

Which logP does the source give for `O=C(O)COc1cccc(C(=O)O)c1` here?
The logP was 1.11.

Which logP does the source give for `Cc1cccc(C2CNCCO2)c1` (stereo not drawn) here?
The logP was 1.52.

Which logP does the source give for `COc1cccc(S(I)=C(N(C)C)N(C)C)c1` (stereo not drawn) here?
Its logP is -0.5.

With `CCc1ccccn1` as the compound, how does the logP read?
Its logP is 1.69.

Which logP does the source give for `NS(=O)(=O)c1ccc([N+](=O)[O-])c(C(F)(F)F)c1` here?
The logP was 1.73.

For `c1ccc(-c2cccc(-c3ccccc3)n2)cc1`, which logP is on record?
The logP was 4.82.

Which logP does the source give for `O=[N+]([O-])C=Cc1ccco1` here?
The logP was 1.56.

Which logP does the source give for `CC(=O)N(C)c1ccc(O)cc1` here?
The logP was 0.61.

With `COc1ccc2cc(C(C)C(=O)OCC(=O)N(C)CC(N)=O)ccc2c1` (stereo not drawn) as the compound, how does the logP read?
The logP was 1.37.

With `O=C(O)c1cccc(Br)c1` as the compound, how does the logP read?
Its logP is 2.87.

With `COc1ccccc1OC(C)=O` as the compound, how does the logP read?
The logP was 1.38.

Which logP does the source give for `Cc1ccc2cc(C)ccc2c1` here?
The logP was 4.31.

For `c1cncc(CN2CCOCC2)c1`, which logP is on record?
The logP was 0.04.

With `CNc1ccccc1` as the compound, how does the logP read?
The logP was 1.66.

Which logP does the source give for `Oc1c(F)c(F)c(F)c(F)c1F` here?
Its logP is 3.23.

Which logP does the source give for `O=C(O)c1cc(I)cc(I)c1O` here?
The logP was 4.56.

Which logP does the source give for `CCCOC(N)=O` here?
The logP was 0.36.

With `CN(N=O)C(=O)Nc1ccc(F)cc1` as the compound, how does the logP read?
Its logP is 1.88.

For `COCCOCC1COC(c2ccc(Cl)cc2Cl)(n2cncn2)O1` (stereo not drawn), which logP is on record?
The logP was 2.03.

Which logP does the source give for `O=[N+]([O-])c1ccc(C=Cc2ncc[nH]2)o1` here?
The logP was 1.32.

With `CCCCOc1cccc(O)c1` as the compound, how does the logP read?
The logP was 3.03.

For `CN(C)/N=N/c1ccccc1CO`, which logP is on record?
Its logP is 1.73.

With `COc1cccc(OCC(=O)O)c1` as the compound, how does the logP read?
The logP was 1.38.

Which logP does the source give for `CN(C)c1nc(Cl)nc(N(C)C)n1` here?
Its logP is 2.31.

Which logP does the source give for `CC(=O)NCc1cc(C(=O)NN)ccn1` here?
Its logP is -1.58.

With `O=C(CN1CCCCC1)Nc1ccc(Br)cc1` as the compound, how does the logP read?
Its logP is 3.57.

For `O=[N+]([O-])c1cc(Cl)ccc1Cl`, which logP is on record?
The logP was 3.09.

For `Cc1ccc(OCC(=O)NNC(C)C)cc1`, which logP is on record?
The logP was 1.81.

With `COc1ccc(CCN)cc1OC` as the compound, how does the logP read?
Its logP is 0.77.

Which logP does the source give for `NS(=O)(=O)c1cccc([N+](=O)[O-])c1` here?
The logP was 0.55.

With `NC(=O)CI` as the compound, how does the logP read?
Its logP is -0.19.

With `CN(N=O)C(=O)Nc1ccccc1` as the compound, how does the logP read?
Its logP is 1.72.

With `COc1cc(Cl)cc(Cl)c1` as the compound, how does the logP read?
Its logP is 3.8.

Which logP does the source give for `COC=O` here?
The logP was 0.03.

For `CC(=O)c1ccc(C(C)=O)cc1`, which logP is on record?
Its logP is 1.34.

For `CCCCOc1cccc(OC(=O)NC)c1`, which logP is on record?
The logP was 2.96.

For `O=c1c2ccccc2sc2ccccc12`, which logP is on record?
The logP was 3.99.

Which logP does the source give for `CCCCC(=O)OCC(=O)C1(O)CCC2C3CCC4=CC(=O)CCC4(C)C3C(O)CC21C` (stereo not drawn) here?
Its logP is 3.62.

For `N#Cc1c[nH]c2ccccc12`, which logP is on record?
The logP was 2.32.

With `CNC(=O)Oc1ccccc1I` as the compound, how does the logP read?
The logP was 1.94.

Which logP does the source give for `NC1=CC(=O)c2ccccc2C1=O` here?
The logP was 1.77.

Which logP does the source give for `Clc1cc(Cl)c(-c2cccc(Cl)c2Cl)cc1Cl` here?
The logP was 6.67.

With `CCCC(=NOCC)C1C(=O)CC2(CCCCC2)OC1=O` (stereo not drawn) as the compound, how does the logP read?
Its logP is 3.62.

For `Cc1cccc(Nc2ccccc2C(=O)O)c1C`, which logP is on record?
Its logP is 5.12.

For `CC(C)(C)C1CCN(N=O)CC1`, which logP is on record?
Its logP is 2.54.

For `CC1OC(OC2C(O)CC(OC3C(O)CC(OC4CCC5(C)C(CCC6C5CCC5(C)C(C7COC(=O)C7)CCC65O)C4)OC3C)OC2C)CC(O)C1O` (stereo not drawn), which logP is on record?
Its logP is 2.9.

With `CC(C)Cc1cc(C(=O)NN)ccn1` as the compound, how does the logP read?
Its logP is 1.02.

With `Clc1ccc(-c2ccccc2Cl)c(Cl)c1` as the compound, how does the logP read?
The logP was 5.76.

With `COc1ccc(C(=O)O)cc1OC` as the compound, how does the logP read?
Its logP is 1.61.

With `COc1ccc(-c2nc3cnccc3n2C)c(OC)c1` as the compound, how does the logP read?
Its logP is 2.66.

Which logP does the source give for `Brc1ccc(Br)cc1` here?
The logP was 3.79.

For `CCCCOc1ccc([N+](=O)[O-])cc1`, which logP is on record?
Its logP is 3.5.

Which logP does the source give for `O=NN(c1ccccc1)c1ccccc1` here?
The logP was 3.13.

For `NC(N)=O`, which logP is on record?
The logP was -2.11.

For `O=[N+]([O-])c1ccc(N2CCCCC2)cc1`, which logP is on record?
Its logP is 3.26.

Which logP does the source give for `O=C(CN1CCCCC1)Nc1ccccc1F` here?
Its logP is 2.16.

With `CC(C)(C)C(=O)NN` as the compound, how does the logP read?
The logP was -0.35.

Which logP does the source give for `O=[N+]([O-])c1cccc2cc[nH]c12` here?
Its logP is 2.63.

For `CN(C)c1cccc2ccccc12`, which logP is on record?
The logP was 3.46.

With `COCCNC(=S)C(F)(F)Cn1cnc([N+](=O)[O-])n1` as the compound, how does the logP read?
The logP was 0.66.

With `CC(O)C(F)(F)F` (stereo not drawn) as the compound, how does the logP read?
The logP was 0.71.

For `Nc1ncnc2[nH]cnc12`, which logP is on record?
Its logP is -0.09.

With `CCCn1cnc2c(N)ncnc21` as the compound, how does the logP read?
Its logP is 0.74.

Which logP does the source give for `BrCCCBr` here?
The logP was 2.37.

Which logP does the source give for `CCCCCCCCC1(c2ccncc2)CCC(=O)NC1=O` (stereo not drawn) here?
The logP was 4.04.

Source: the OPERA property sets (Mansouri et al. 2018)
